Assay results: patent publication US12642857B2, “Degradation of AKT by conjugation of ATP-competitive AKT inhibitor GDC-0068 with E3 ligase ligands and methods of use” (DANA-FARBER CANCER INSTITUTE, INC., priority 2019, dated 2026)
Entries after “also recorded” stand apart in the source; their conditions may differ.

Key:
[1] = molecular target: T1, AKT1 (Homo sapiens, UniProt P31749); assay: Z'-LYTE assay (AKT binding assay), AKT1; conditions: 10-point dose response, Km ATP, read-out: Biochemical Binding AKT1
T1 construct: purchased Life Technologies (Invitrogen)
Method: (§1) Z′-LYTE assays (catalog number PV3193, Invitrogen™) were conducted for AKT1, AKT2, AKT3, PKG1, S6K1, PKN1, βMSK2, and Haspin at Life Technologies™ in a 10-point dose response using Km ATP concentrations. LanthaScreen™ assays were conducted for RET (V804M) in a 10-point dose response at Life Technologies™.

[2] = molecular target: T2, AKT2 (Homo sapiens, UniProt P31751); assay: Z'-LYTE assay (AKT binding assay), AKT2; conditions: 10-point dose response, Km ATP, read-out: Biochemical Binding AKT2
T2 construct: purchased Life Technologies (Invitrogen)
Method: as §1

[3] = molecular target: T3, AKT3 (Homo sapiens, UniProt Q9Y243); assay: Z'-LYTE assay (AKT binding assay), AKT3; conditions: 10-point dose response, Km ATP, read-out: Biochemical Binding AKT3
T3 construct: purchased Life Technologies (Invitrogen)
Method: as §1

[4] = test system: AKT1, AKT2 and AKT3; assay: Immunoblot of AKT isoform degradation in MDA-MB-468 cells; type: cell-based, human; conditions: 24-hour treatment
Method: (§2) MDA-MB-468 (human breast cancer cell line) cells were maintained in RPMI 1640 (Wisent Bioproducts) supplemented with 10% FBS (Thermo Fisher Scientific) and MCF10A (human breast epithelial cell line) cells were maintained in Dulbecco's modified Eagle's medium (DMEM)/Ham's F12 (Wisent Bioproducts) supplemented with 5% equine serum (Fisher), insulin (10 μg/ml) (Life Technologies), hydrocortisone (500 ng/ml) (Sigma-Aldrich®), epidermal growth factor (20 ng/ml) (R&D Systems), and cholera toxin (100 ng/ml) (List Biological Lab). MDA-MB-468 and MCF10A cells were seeded at 250,000 cells/mL and 200,000 cells/mL, respectively. The following day cells were treated with inventive bifunctional compounds. After 24 hours, cells were washed with phosphate-buffered saline at 4° C. and lysed in radioimmunoprecipitation assay (RIPA) buffer (150 mM Tris-HCl, 150 mM NaCl, 0.5% (w/v) sodium deoxycholate, 1% (v/v) NP-40, pH 7.5) containing 0.1% (w/v) sodium dodecyl sulfate, 1 mM sodium pyrophosphate, 20 mM sodium fluoride, 50 nM calyculin, and 0.5% (v/v) protease inhibitor cocktail (Sigma-Aldrich®)). Cell extracts were precleared by centrifugation at 14,000 rpm for 10 minutes at 4° C. The Bio-Rad DC protein assay was used to assess protein concentration, and sample concentration was normalized using SDS sample buffer. […] Images were stored and analyzed using ImageStudio™ (LI-COR®) software. […]

[5] = test system: AKT1, AKT2 and AKT3; assay: Immunoblot of AKT isoform degradation in MCF10A cells; type: cell-based, human; conditions: 24-hour treatment
Method: as §2

[6] = test system: ZR-75-1 cells; assay: Growth inhibition rate (GR) assay in ZR-75-1 cells; type: cell-based; conditions: 72-hour treatment (FIG. 6A)
Text: FIG. 6A-FIG. 6F are a set of graphs that show growth inhibition rate (GR) values across concentrations in ZR-75-1 (FIG. 6A), T47D (FIG. 6B), LNCaP (FIG. 6C), MCF-7 (FIG. 6D), MDA-MB-468 (FIG. 6E), and HCC1937 (FIG. 6F) cells after 72-hour treatment with GDC-0068 (blue), inventive bifunctional compound 10 (red), bifunctional compound 10-Me (negative control) (green), and lenalidomide (orange). Error bars represent the standard deviation of three technical replicates.

T2 sequence (P31751 whole entry): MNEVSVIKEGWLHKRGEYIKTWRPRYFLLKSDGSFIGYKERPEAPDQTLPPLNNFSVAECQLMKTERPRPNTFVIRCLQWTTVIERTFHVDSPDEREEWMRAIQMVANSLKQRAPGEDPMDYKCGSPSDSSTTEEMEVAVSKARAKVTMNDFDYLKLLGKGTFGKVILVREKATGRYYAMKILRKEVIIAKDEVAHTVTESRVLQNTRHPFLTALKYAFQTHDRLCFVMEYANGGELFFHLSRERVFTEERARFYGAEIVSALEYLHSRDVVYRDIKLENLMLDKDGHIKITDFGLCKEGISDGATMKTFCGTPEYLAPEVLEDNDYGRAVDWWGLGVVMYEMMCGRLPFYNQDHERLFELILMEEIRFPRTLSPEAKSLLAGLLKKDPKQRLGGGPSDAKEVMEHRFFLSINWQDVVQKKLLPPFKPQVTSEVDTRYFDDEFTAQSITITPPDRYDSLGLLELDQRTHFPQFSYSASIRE
T1 sequence (P31749 whole entry): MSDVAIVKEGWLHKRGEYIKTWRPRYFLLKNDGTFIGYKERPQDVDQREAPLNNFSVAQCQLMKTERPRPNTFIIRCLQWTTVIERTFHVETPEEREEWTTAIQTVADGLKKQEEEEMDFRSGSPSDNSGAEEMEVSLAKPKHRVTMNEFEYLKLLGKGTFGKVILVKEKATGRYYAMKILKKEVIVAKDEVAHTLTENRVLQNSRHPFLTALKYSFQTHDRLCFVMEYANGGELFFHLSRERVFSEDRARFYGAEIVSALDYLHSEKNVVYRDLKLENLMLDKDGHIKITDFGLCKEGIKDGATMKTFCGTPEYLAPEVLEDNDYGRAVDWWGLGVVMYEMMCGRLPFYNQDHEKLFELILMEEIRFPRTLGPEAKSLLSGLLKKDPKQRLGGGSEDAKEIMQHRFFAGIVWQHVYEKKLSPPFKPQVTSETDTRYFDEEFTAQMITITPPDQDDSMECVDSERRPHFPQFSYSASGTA
T3 sequence (Q9Y243 whole entry): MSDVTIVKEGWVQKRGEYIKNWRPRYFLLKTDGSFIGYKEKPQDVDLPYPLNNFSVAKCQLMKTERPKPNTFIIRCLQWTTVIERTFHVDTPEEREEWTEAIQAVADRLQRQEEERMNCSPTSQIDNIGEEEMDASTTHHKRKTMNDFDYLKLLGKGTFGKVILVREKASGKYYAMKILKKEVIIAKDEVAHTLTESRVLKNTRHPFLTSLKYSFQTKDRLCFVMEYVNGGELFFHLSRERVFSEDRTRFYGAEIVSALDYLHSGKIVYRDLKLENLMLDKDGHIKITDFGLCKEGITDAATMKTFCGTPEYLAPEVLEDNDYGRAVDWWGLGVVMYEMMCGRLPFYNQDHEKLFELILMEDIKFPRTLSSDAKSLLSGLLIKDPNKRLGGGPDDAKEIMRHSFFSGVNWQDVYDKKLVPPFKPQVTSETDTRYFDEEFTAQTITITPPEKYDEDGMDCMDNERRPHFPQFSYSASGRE

SMILES | IC50 [1] [nM] | IC50 [2] [nM] | IC50 [3] [nM] | other results
Cc1ncsc1-c1ccc([C@H](C)NC(=O)[C@@H]2C[C@@H](O)CN2C(=O)[C@@H](NC(=O)CCOCCCNC[C@@H](C(=O)N2CCN(c3ncnc4c3[C@H](C)CC4)CC2)c2ccc(Cl)cc2)C(C)(C)C)cc1 [Compound 1, (2S,4R)-1-((S)-2-(3-(3-(((S)-2-(4-chlorophenyl)-3-(4-((R)-5-methyl-6,7-dihydro-5H-cyclopenta[d]pyrimidin-4-yl)piperazin-1-yl)-3-oxopropyl)amino)propoxy)propanamido)-3,3-dimethylbutanoyl)-4-hydroxy-N—((S)-1-(4-(4-methylthiazol-5-yl)phenyl)ethyl)pyrrolidine-2-carboxamide] | 1.58 | 15.1 | 4.94 | Degradation of AKT isoforms [4]: degraded in MDA-MB-468 cells in a dose-dependent manner; also recorded: degraded in MDA-MB-468 cells (FIG. 3); Degradation of AKT isoforms [5]: degraded in MCF10A cells in a dose-dependent manner
C[C@@H]1C[C@@H](O)c2ncnc(N3CCN(C(=O)[C@H](CNCCCNC(=O)COc4cccc5c4C(=O)N(C4CCC(=O)NC4=O)C5=O)c4ccc(Cl)cc4)CC3)c21 (stereo partly drawn) [Compound 2, N-(3-(((S)-2-(4-chlorophenyl)-3-(4-((5R,7R)-7-hydroxy-5-methyl-6,7-dihydro-5H-cyclopenta[d]pyrimidin-4-yl)piperazin-1-yl)-3-oxopropyl)-amino)propyl)-2-((2-(2,6-dioxopiperidin-3-yl)-1,3-dioxoisoindolin-4-yl)oxy) acetamide] | 3.93 | 31.4 | 20.4 | –
C[C@@H]1C[C@@H](O)c2ncnc(N3CCN(C(=O)[C@H](CNCCCCCCCCNC(=O)COc4cccc5c4C(=O)N(C4CCC(=O)NC4=O)C5=O)c4ccc(Cl)cc4)CC3)c21 (stereo partly drawn) [Compound 3, N-(8-(((S)-2-(4-chlorophenyl)-3-(4-((5R,7R)-7-hydroxy-5-methyl-6,7-dihydro-5H-cyclopenta[d]pyrimidin-4-yl)piperazin-1-yl)-3-oxopropyl)amino)octyl)-2-((2-(2,6-dioxopiperidin-3-yl)-1,3-dioxoisoindolin-4-yl)oxy)acetamide] | 1.03 | 4.04 | 1.23 | Degradation of AKT isoforms [4]: degraded in MDA-MB-468 cells in a dose-dependent manner; also recorded: degraded in MDA-MB-468 cells (FIG. 3); Degradation of AKT isoforms [5]: degraded in MCF10A cells in a dose-dependent manner
C[C@@H]1C[C@@H](O)c2ncnc(N3CCN(C(=O)[C@H](CNCCOCCOCCNC(=O)COc4cccc5c4C(=O)N(C4CCC(=O)NC4=O)C5=O)c4ccc(Cl)cc4)CC3)c21 (stereo partly drawn) [Compound 4, N-(2-(2-(2-(((S)-2-(4-chlorophenyl)-3-(4-((5R,7R)-7-hydroxy-5-methyl-6,7-dihydro-5H-cyclopenta[d]pyrimidin-4-yl)piperazin-1-yl)-3-oxopropyl)amino)ethoxy)ethoxy)ethyl)-2-((2-(2,6-dioxopiperidin-3-yl)-1,3-dioxoisoindolin-4-yl)oxy)acetamide] | 6.97 | – | – | –
C[C@@H]1C[C@@H](O)c2ncnc(N3CCN(C(=O)[C@H](CNCCOCCNC(=O)COc4cccc5c4C(=O)N(C4CCC(=O)NC4=O)C5=O)c4ccc(Cl)cc4)CC3)c21 (stereo partly drawn) [Compound 5, N-(2-(2-(((S)-2-(4-chlorophenyl)-3-(4-((5R,7R)-7-hydroxy-5-methyl-6,7-dihydro-5H-cyclopenta[d]pyrimidin-4-yl)piperazin-1-yl)-3-oxopropyl)amino)ethoxy)ethyl)-2-((2-(2,6-dioxopiperidin-3-yl)-1,3-dioxoisoindolin-4-yl)oxy)acetamide] | 3.4 | – | – | –
Cc1ncsc1-c1ccc([C@H](C)NC(=O)[C@@H]2C[C@@H](O)CN2C(=O)[C@@H](NC(=O)CCOCCOCCNC[C@@H](C(=O)N2CCN(c3ncnc4c3[C@H](C)C[C@H]4O)CC2)c2ccc(Cl)cc2)C(C)(C)C)cc1 [Compound 6, (2S,4R)-1-((2S,15S)-2-(tert-butyl)-15-(4-chlorophenyl)-16-(4-((5R,7R)-7-hydroxy-5-methyl-6,7-dihydro-5H-cyclopenta[d]pyrimidin-4-yl)piperazin-1-yl)-4,16-dioxo-7,10-dioxa-3,13-diazahexadecanoyl)-4-hydroxy-N—((S)-1-(4-(4-methylthiazol-5-yl)phenyl)ethyl)pyrrolidine-2-carboxamide] | 3.8 | – | – | –
C[C@@H]1C[C@@H](O)c2ncnc(N3CCN(C(=O)[C@H](CNCCCCCCCCC#Cc4cccc5c4CN(C4CCC(=O)NC4=O)C5=O)c4ccc(Cl)cc4)CC3)c21 (stereo partly drawn) [Compound 7, 3-(4-(10-(((S)-2-(4-chlorophenyl)-3-(4-((5R,7R)-7-hydroxy-5-methyl-6,7-dihydro-5H-cyclopenta[d]pyrimidin-4-yl)piperazin-1-yl)-3-oxopropyl)amino)dec-1-yn-1-yl)-1-oxoisoindolin-2-yl)piperidine-2,6-dione] | 2.46 | – | – | –
C[C@@H]1C[C@@H](O)c2ncnc(N3CCN(C(=O)[C@H](CNCCCCc4cccc5c4C(=O)N(C4CCC(=O)NC4=O)C5=O)c4ccc(Cl)cc4)CC3)c21 (stereo partly drawn) [Compound 9, 4-(4-(((S)-2-(4-chlorophenyl)-3-(4-((5R,7R)-7-hydroxy-5-methyl-6,7-dihydro-5H-cyclopenta[d]pyrimidin-4-yl)piperazin-1-yl)-3-oxopropyl)amino)butyl)-2-(2,6-dioxopiperidin-3-yl)isoindoline-1,3-dione] | 1.8 | – | – | –
C[C@@H]1C[C@@H](O)c2ncnc(N3CCN(C(=O)[C@H](CNCCCCCCCCCCc4cccc5c4CN(C4CCC(=O)N(C)C4=O)C5=O)c4ccc(Cl)cc4)CC3)c21 (stereo partly drawn) [Compound 10-Me, 3-(4-(10-(((S)-2-(4-chlorophenyl)-3-(4-((5R,7R)-7-hydroxy-5-methyl-6,7-dihydro-5H-cyclopenta[d]pyrimidin-4-yl)piperazin-1-yl)-3-oxopropyl)amino)decyl)-1-oxoisoindolin-2-yl)-1-methylpiperidine-2,6-dione] | – | – | – | Anti-proliferative potency relative to compound 10 [6]: significantly less potent; GR50 ([6]; Homo sapiens, read-out: GR50): 413 nM
